# Read-outs that look alike come from different tables or passages of the source.
# Tests used:
# K-562 = test: 3H-Thymidine uptake cell proliferation assay, K-562; type: cell-based; settings: Homo sapiens, K562, 72 h incubation, read-out: Antiproliferative activity IC50, K-562
# Experimental: (§1) ^3H-Thymidine uptake assay: ^3H-Thymidine-incorporation is directly proportional to the number of dividing cells in culture.
# (§2) Exponentially growing cultures were subjected to different concentrations of test compounds and standard as given below.
# (§3) Cells were seeded at a density of 3×10^3 to 5×10^3 per well (in 0.180 mL) in transparent 96 well tissue culture plate (NUNC, USA) and were allowed to incubate at 37° C. in 5% carbon dioxide incubator for 2-6 h. Test compounds were diluted in medium (RPMI1640 with 10% FBS) at various concentrations, and 0.02 mL of 10× stocks were added to each well in triplicate. Plates were incubated at 37° C. in 5% carbon dioxide incubator for 72 h, with an intermittent microscopic observation every 24 h.
# (§4) After 72 h incubation, the plate was centrifuged at 1000 rpm for 10 mins in a plate centrifuge. Supernatant was carefully aspirated and ^3H-Thymidine was added to all wells at a concentration of 0.5 μCi/well in 0.1 mL complete medium. Plates were further incubated at 37° C. in 5% carbon dioxide incubator for 6-14 h.
# (§5) The filter plate was dried completely at 60° C. for 1 h, or overnight (16 h) at room temperature (25° C.). […] The plate was sealed from the top, read on scintillation counter (TopCount, Packard), and percent inhibition and IC50 in comparison with control values was calculated.
# K-562-R = test: 3H-Thymidine uptake cell proliferation assay, K-562-R; type: cell-based; settings: Homo sapiens, 72 h incubation, K-562-R (GLEEVEC resistant), read-out: Antiproliferative activity IC50, K-562-R
# Experimental: as §1, §2, §3, §4, §5
# 32Dcl^Bcr-Abl T315I = target: T1, 32Dcl^Bcr-Abl T315I (Homo sapiens, UniProt P00519, T315I, cells depend on it); test: 3H-Thymidine uptake cell proliferation assay, 32Dcl Bcr-Abl T315I; type: cell-based, Mouse; settings: 72 h incubation, read-out: Antiproliferative activity IC50, 32Dcl^Bcr-Abl T315I
# T1 construct: Mouse fibroblast with T315I mutated Bcr-Abl; fused on or other part: P11274 (Breakpoint cluster region protein)
# Experimental: as §1, §2, §3, §4, §5
# K562 = test: CCK-8 cell proliferation and cytotoxicity assay, K562; type: cell-based, Human; settings: Homo sapiens, K562, 72 h; read-out: Inhibitory concentration (IC50), K562
# Ba/F3 Bcr-Abl/WT = target: T2, Ba/F3 Bcr-Abl/WT (Homo sapiens, UniProt P00519); test: CCK-8 assay, Ba/F3 Bcr-Abl/WT; type: cell-based; settings: CCK-8, 72 h, imatinib mesylate sensitive; read-out: Inhibitory concentration (IC50), Ba/F3 Bcr-Abl/WT
# T2 construct: fused on or other part: P11274 (Breakpoint cluster region protein)
# From the text: (§6) The cell lines described in Table 3 were used to test the antiproliferative activity of test compounds.
# (§7) Cell Counting Kit-8 (CCK-8) allows very convenient assay by utilizing Dojindo's highly water-soluble tetrazolium salt. CCK-8, being nonradioactive, allows sensitive colorimetric assay for the determination of number of viable cells in cell proliferation and cytotoxicity assays. The amount of the formazan dye generated by dehydrogenases in cells is directly proportional to the number of living cells. Thus, the CCK-8 assay can also be substituted for the H^3-Thymidine incorporation assay.
# (§8) Plates were further incubated at 37° C., 5% CO2 incubator for 72 h. 10 μl of the CCK-8 solution was added to each well and plate was incubated for 1-4 h in the incubator. Measured the absorbance at 450 nm using a microplate reader.
# (§9) A. The percent inhibition and IC50 were calculated in comparison with control values.
# Ba/F3 Bcr-Abl/T315I = Ba/F3 Bcr-Abl/T315I (Homo sapiens, UniProt P00519, T315I, cells depend on it)
# From the text: as §6, §7, §8, §9
# Ba/F3 Bcr-Abl/E255K = target: T3, Ba/F3 Bcr-Abl/E255K (Homo sapiens, UniProt P00519, E255K, cells depend on it); test: CCK-8 assay, Ba/F3 Bcr-Abl/E255K; type: cell-based; settings: mouse, 72 h
# T3 construct: fused on or other part: P11274 (Breakpoint cluster region protein)
# Ba/F3 Bcr-Abl/E255V = target: T4, Ba/F3 Bcr-Abl/E255V (Homo sapiens, UniProt P00519, E255V, cells depend on it); test: CCK-8 assay, Ba/F3 Bcr-Abl/E255V; type: cell-based; settings: mouse, 72 h
# T4 construct: fused on or other part: P11274 (Breakpoint cluster region protein)
# Ba/F3 Bcr-Abl/F317L = target: T5, Ba/F3 Bcr-Abl/F317L (Homo sapiens, UniProt P00519, F317L, cells depend on it); test: CCK-8 assay, Ba/F3 Bcr-Abl/F317L; type: cell-based; settings: mouse, 72 h
# T5 construct: fused on or other part: P11274 (Breakpoint cluster region protein)
# Ba/F3 Bcr-Abl/F359V = target: T6, Ba/F3 Bcr-Abl/F359V (Homo sapiens, UniProt P00519, F359V, cells depend on it); test: CCK-8 assay, Ba/F3 Bcr-Abl/F359V; type: cell-based; settings: mouse, 72 h
# T6 construct: fused on or other part: P11274 (Breakpoint cluster region protein)
# Ba/F3 Bcr-Abl/H396P = target: T7, Ba/F3 Bcr-Abl/H396P (Homo sapiens, UniProt P00519, H396P, cells depend on it); test: CCK-8 assay, Ba/F3 Bcr-Abl/H396P; type: cell-based; settings: mouse, 72 h
# T7 construct: fused on or other part: P11274 (Breakpoint cluster region protein)
# Ba/F3 Bcr-Abl/H396R = target: T8, Ba/F3 Bcr-Abl/H396R (Homo sapiens, UniProt P00519, H396R, cells depend on it); test: CCK-8 assay, Ba/F3 Bcr-Abl/H396R; type: cell-based; settings: mouse, 72 h
# T8 construct: fused on or other part: P11274 (Breakpoint cluster region protein)
# Ba/F3 Bcr-Abl/M244V = target: T9, Ba/F3 Bcr-Abl/M244V (Homo sapiens, UniProt P00519, M244V, cells depend on it); test: CCK-8 assay, Ba/F3 Bcr-Abl/M244V; type: cell-based; settings: mouse, 72 h
# T9 construct: fused on or other part: P11274 (Breakpoint cluster region protein)
# Ba/F3 Bcr-Abl/M351T = target: T10, Ba/F3 Bcr-Abl/M351T (Homo sapiens, UniProt P00519, M351T, cells depend on it); test: CCK-8 assay, Ba/F3 Bcr-Abl/M351T; type: cell-based; settings: mouse, 72 h
# T10 construct: fused on or other part: P11274 (Breakpoint cluster region protein)
# Ba/F3 Bcr-Abl/Q252H = target: T11, Ba/F3 Bcr-Abl/Q252H (Homo sapiens, UniProt P00519, Q252H, cells depend on it); test: CCK-8 assay, Ba/F3 Bcr-Abl/Q252H; type: cell-based; settings: mouse, 72 h
# T11 construct: fused on or other part: P11274 (Breakpoint cluster region protein)
# Ba/F3 Bcr-Abl/Y253F = target: T12, Ba/F3 Bcr-Abl/Y253F (Homo sapiens, UniProt P00519, Y253F, cells depend on it); test: CCK-8 assay, Ba/F3 Bcr-Abl/Y253F; type: cell-based; settings: mouse, 72 h
# T12 construct: fused on or other part: P11274 (Breakpoint cluster region protein)
# Ba/F3 Bcr-Abl/Y253H = target: T13, Ba/F3 Bcr-Abl/Y253H (Homo sapiens, UniProt P00519, Y253H, cells depend on it); test: CCK-8 assay, Ba/F3 Bcr-Abl/Y253H; type: cell-based; settings: mouse, 72 h
# T13 construct: fused on or other part: P11274 (Breakpoint cluster region protein)
# [1] = target: T14, p210^bcr-abl tyrosine kinase (Homo sapiens, UniProt P00519); test: Bcr-abl kinase assay: autophosphorylation after immunoprecipitation from treated K-562 cells; type: cell-based; settings: K-562 cells treated at IC50 and 3×IC50 for 24 h
# T14 construct: immunoprecipitation of p210^bcr-abl tyrosine kinase from K-562 cell lysate; BCR (natural N-terminal fusion partner of the p210 BCR-ABL oncoprotein); endogenous in cells; host or cells: K-562 (human leukemic cell line); the other entry of the earlier key: BCR (P11274, Breakpoint cluster region protein)
# Experimental: To study inhibition of autophosphorylation of Bcr-abl. Study was carried out by immunoprecipitation of p210^bcr-abl tyrosine kinase from K-562 cell lysate, followed by kinase enzyme assay. The reaction mixture was subjected to SDS-PAGE followed by autoradiography.
# To check for the inhibition of autophosphorylation of p210^bcr-abl tyrosine kinase by compounds of the present invention, K-562 cells which express wild type Bcr-abl were used. […] Cells were washed with PBS solution and lysed using lysis buffer (CelLytic M Cell Lysis reagent, Sigma Aldrich, USA) for 2-3 h in cold conditions. Protein was estimated by Bradford method (Bradford reagent, Sigma Aldrich, USA). For immunoprecipitation equal amount of protein is taken from all samples. A p210^bcr-abl protein was immunoprecipitated using polyclonal anti-c-abl antibody (Santa Cruz Biotechnologies, USA) followed by incubation at 4° C. overnight with Protein A-Sepharose. […]
# Kinase reaction was performed using 0.5 μCi (γ^32P)-adenosine triphosphate per reaction and incubated for 30 minutes at room temperature (25° C.). […] Autophosphorylation reaction products are resolved on SDS-PAGE and detected by autoradiography.
structure (smiles),measurement,setting,value
"COC(=O)C=Cc1ccc(O)c(O)c1 [Compound 2, 3-(3,4-Dihydroxy-phenyl)-acrylic acid methyl ester]",IC50,K-562,13.6 ± 2.3 µM
same,IC50,K-562-R,23 µM
same,GI50,32Dcl^Bcr-Abl T315I,35 µM
same,IC50,K562,13.3 ± 2.1 µM
same,GI50,Ba/F3 Bcr-Abl/WT,7.9 ± 2.1 µM
same,GI50,"Ba/F3 Bcr-Abl/T315I; mouse, ba/f3 bcr-abl/t315i, 72 h",6.3 µM
same,GI50,"Ba/F3 Bcr-Abl/T315I; read-out: Inhibitory concentration (IC50), Ba/F3 Bcr-Abl/T315I, CCK-8, 72 h, imatinib mesylate resistant, Table 4",3.8 ± 1.9 µM
same,GI50,Ba/F3 Bcr-Abl/E255K,15 µM
same,GI50,Ba/F3 Bcr-Abl/E255V,18.9 µM
same,GI50,Ba/F3 Bcr-Abl/F317L,23.5 µM
same,GI50,Ba/F3 Bcr-Abl/F359V,18.4 µM
same,GI50,Ba/F3 Bcr-Abl/H396P,26.2 µM
same,GI50,Ba/F3 Bcr-Abl/H396R,18.8 µM
same,GI50,Ba/F3 Bcr-Abl/M244V,30.1 µM
same,GI50,Ba/F3 Bcr-Abl/M351T,16.1 µM
same,GI50,Ba/F3 Bcr-Abl/Q252H,15.4 µM
same,GI50,Ba/F3 Bcr-Abl/Y253F,17 µM
same,GI50,Ba/F3 Bcr-Abl/Y253H,14.5 µM
same,"Inhibition of autophosphorylation of Bcr-abl (band density, autoradiography)",[1],potent Bcr-abl tyrosine kinase inhibitor
